What follows are molecules tested on KM12 cells (assay: Cell viability assay (CellTiter-Glo) in KM12 cells). Conditions: Homo sapiens, 72 h; Table 3; KM12 cell viability, CellTiter-Glo, 3 days; read-out: IC50.
Format: cell-based
Work on O=C(CN1CCN(c2ccc(C(=O)Nc3n[nH]c4ccc(Cc5cc(F)cc(F)c5)cc34)c(NC3CCOCC3)c2)CC1)NCCOCCOCCOCCOCCOCCNc1ccc2c(c1)C(=O)N(C1CCC(=O)NC1=O)C2=O (centres unmarked) [TR-166, N-(5-(3,5-Difluorobenzyl)-1H-indazol-3-yl)-4-(4-(20-((2-(2,6-dioxopiperidin-3-yl)-1,3-dioxoisoindolin-5-yl)amino)-2-oxo-6,9,12,15,18-pentaoxa-3-azaicosyl)piperazin-1-yl)-2-((tetrahydro-2H-pyran-4-yl)amino)benzamide] yielded an IC50 of 4.4 nM.
With O=C(CN1CCN(c2ccc(C(=O)Nc3n[nH]c4ccc(Cc5cc(F)cc(F)c5)cc34)c(NC3CCOCC3)c2)CC1)NCCCNc1ccc2c(c1)C(=O)N(C1CCC(=O)NC1=O)C2=O (centres unmarked) [TR-167, N-(5-(3,5-Difluorobenzyl)-1H-indazol-3-yl)-4-(4-(2-((3-((2-(2,6-dioxopiperidin-3-yl)-1,3-dioxoisoindolin-5-yl)amino)propyl)amino)-2-oxoethyl)piperazin-1-yl)-2-((tetrahydro-2H-pyran-4-yl)amino)benzamide] the IC50 was 3.3 nM.
O=C1CCC(N2C(=O)c3ccc(NCCCC(=O)N4CCN(c5cccc(-c6cnc7ccc(N8CCC[C@@H]8c8cccc(F)c8)nn67)n5)CC4)cc3C2=O)C(=O)N1 (stereo partly drawn) [TR-168, 2-(2,6-Dioxopiperidin-3-yl)-5-((4-(4-(6-(6-((R)-2-(3-fluorophenyl)pyrrolidin-1-yl)imidazo[1,2-b]pyridazin-3-yl)pyridin-2-yl)piperazin-1-yl)-4-oxobutyl)amino)isoindoline-1,3-dione] was tested, and the IC50 was 2.9 nM.
In the case of O=C1CCC(N2C(=O)c3ccc(NCCCC(=O)N4CCN(c5ccc(C(=O)Nc6n[nH]c7ccc(Cc8cc(F)cc(F)c8)cc67)c(NC6CCOCC6)c5)CC4)cc3C2=O)C(=O)N1 (centres unmarked) [TR-169, N-(5-(3,5-Difluorobenzyl)-1H-indazol-3-yl)-4-(4-(4-((2-(2,6-dioxopiperidin-3-yl)-1,3-dioxoisoindolin-5-yl)amino)butanoyl)piperazin-1-yl)-2-((tetrahydro-2H-pyran-4-yl)amino)benzamide], the IC50 is reported as 1.6 nM.
Molecule O=C1CCC(N2C(=O)c3ccc(N4CCN(c5cccc(-c6cnc7ccc(N8CCC[C@@H]8c8cccc(F)c8)nn67)n5)CC4)cc3C2=O)C(=O)N1 (stereo partly drawn) [TR-170, 2-(2,6-Dioxopiperidin-3-yl)-5-(4-(6-(6-((R)-2-(3-fluorophenyl)pyrrolidin-1-yl)imidazo[1,2-b]pyridazin-3-yl)pyridin-2-yl)piperazin-1-yl)isoindoline-1,3-dione] has an IC50 of 15.1 nM.
Work on O=C1CCC(N2C(=O)c3ccc(NC4CCN(c5cccc(-c6cnc7ccc(N8CCC[C@@H]8c8cccc(F)c8)nn67)n5)CC4)cc3C2=O)C(=O)N1 (stereo partly drawn) [TR-174, 2-(2,6-dioxopiperidin-3-yl)-5-((1-(6-(6-((R)-2-(3-fluorophenyl)pyrrolidin-1-yl)imidazo[1,2-b]pyridazin-3-yl)pyridin-2-yl)piperidin-4-yl)amino)isoindoline-1,3-dione] yielded an IC50 of 18.7 nM.
In the case of O=C1CCC(N2C(=O)c3ccc(NC4CN(c5cccc(-c6cnc7ccc(N8CCC[C@@H]8c8cccc(F)c8)nn67)n5)C4)cc3C2=O)C(=O)N1 (stereo partly drawn) [TR-175, 2-(2,6-Dioxopiperidin-3-yl)-5-((1-(6-(6-((R)-2-(3-fluorophenyl)pyrrolidin-1-yl)imidazo[1,2-b]pyridazin-3-yl)pyridin-2-yl)azetidin-3-yl)amino)isoindoline-1,3-dione], the IC50 is reported as 40.8 nM.
Molecule O=C1CCC(N2C(=O)c3ccc(NCCOCCN4CCN(c5cccc(-c6cnc7ccc(N8CCC[C@@H]8c8cccc(F)c8)nn67)n5)CC4)cc3C2=O)C(=O)N1 (stereo partly drawn) [TR-176, 2-(2,6-Dioxopiperidin-3-yl)-5-((2-(2-(4-(6-(6-((R)-2-(3-fluorophenyl)pyrrolidin-1-yl)imidazo[1,2-b]pyridazin-3-yl)pyridin-2-yl)piperazin-1-yl)ethoxy)ethyl)amino)isoindoline-1,3-dione] has an IC50 of 18 nM.
